Reference: PubChem BioAssay AID1645866 (Buhrlage Lab, Dana-Farber Cancer Institute and Novartis …, 2021)
Calls of active or inactive are those of the source.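 Rule for the calls: active = in confirmatory dose-response testing, peak deubiquitinase inhibition of 30% or more; inactive = the rest.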

The molecules below were run against Ubiquitin carboxyl-terminal hydrolase 28 (Homo sapiens) (UniProt Q96RU2) (assay: Concentration-response biochemical assay confirming initial hits as inhibitors of ubiquitin-specific protease 28 (AID 1645866)). Conditions: purified USP28, ubiquitin-rhodamine fluorescence, 30 min.
Sequence of Ubiquitin carboxyl-terminal hydrolase 28 (Homo sapiens) (Q96RU2 whole entry, looked up): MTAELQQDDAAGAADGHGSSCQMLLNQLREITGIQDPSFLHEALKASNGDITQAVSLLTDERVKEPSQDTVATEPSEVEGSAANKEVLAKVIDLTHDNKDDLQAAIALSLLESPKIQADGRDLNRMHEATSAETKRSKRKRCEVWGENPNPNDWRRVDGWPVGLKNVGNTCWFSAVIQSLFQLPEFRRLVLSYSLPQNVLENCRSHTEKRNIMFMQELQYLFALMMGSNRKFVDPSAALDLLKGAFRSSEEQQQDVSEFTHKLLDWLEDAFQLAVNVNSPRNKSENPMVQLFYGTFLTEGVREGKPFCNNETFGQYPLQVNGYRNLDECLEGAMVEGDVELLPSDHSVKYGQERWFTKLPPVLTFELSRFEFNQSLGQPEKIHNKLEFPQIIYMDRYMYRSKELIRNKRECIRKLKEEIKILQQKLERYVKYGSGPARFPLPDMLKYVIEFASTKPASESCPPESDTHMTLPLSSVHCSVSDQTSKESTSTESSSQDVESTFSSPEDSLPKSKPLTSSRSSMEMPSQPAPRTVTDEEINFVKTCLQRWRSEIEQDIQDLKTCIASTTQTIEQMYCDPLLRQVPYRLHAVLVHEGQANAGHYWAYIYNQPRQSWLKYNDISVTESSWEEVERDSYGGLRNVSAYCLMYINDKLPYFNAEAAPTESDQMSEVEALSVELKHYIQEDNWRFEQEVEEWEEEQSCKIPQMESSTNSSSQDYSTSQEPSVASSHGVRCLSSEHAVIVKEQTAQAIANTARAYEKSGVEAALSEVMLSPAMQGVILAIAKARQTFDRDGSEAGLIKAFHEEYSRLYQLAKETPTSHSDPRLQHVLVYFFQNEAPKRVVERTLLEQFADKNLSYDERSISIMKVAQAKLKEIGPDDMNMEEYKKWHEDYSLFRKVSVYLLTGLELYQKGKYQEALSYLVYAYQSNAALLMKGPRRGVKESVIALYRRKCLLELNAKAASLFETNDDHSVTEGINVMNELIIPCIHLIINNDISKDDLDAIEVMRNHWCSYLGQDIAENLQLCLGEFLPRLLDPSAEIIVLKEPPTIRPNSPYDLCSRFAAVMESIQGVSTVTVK
O=C(Nc1cccc2ccccc12)N1CCC(c2nc3c(nnn3Cc3ccc(F)cc3)c(=O)[nH]2)CC1 was tested, and the IC50 was 36.1 µM.
Work on Cc1nc(-c2ccc(C(=O)NCc3ccc(F)cc3)cc2)cs1 yielded an IC50 of 36.7 µM.
CC(=O)c1cc2c(=O)c3c(C(=O)O)c(O)c(O)cc3oc2c(C(C)=O)c1-c1coc2cc(O)c(O)c(C(=O)O)c2c1=O was tested, and the IC50 was 1.77 µM.
With COc1ccc(CCC(=O)Nc2ccc3c(c2)Sc2ncccc2C(=O)N3C)cc1 the IC50 was 41 µM.
Oc1ccc(-c2nc3cnccn3c2NCCc2ccccc2)c(O)c1 was tested, and the IC50 was > 50 µM (inactive).
For COC(=O)C1C(c2ccc(OC)cc2)C2(C(=O)c3ccccc3C2=O)C2C=Cc3ccccc3N12 (configuration not stated), the IC50 was > 50 µM (inactive).
For O=C(CSc1nc2cc(C(F)(F)F)ccc2s1)NCC(=O)c1ccccc1, the IC50 was 6.5 µM.
For O=C1/C(=C/c2cn(-c3ccccc3)nc2-c2ccc3c(c2)OCCO3)Cc2ccccc21, the IC50 was > 50 µM (inactive).
N#Cc1ccc(-c2ccc(OCC(=O)Nc3ccc4c(c3)OCO4)cc2)cc1 gave an IC50 of 11.5 µM.
With COc1ccccc1OCC(=O)Nc1ccc2c(c1)CCC(=O)N2Cc1ccccc1 the IC50 was > 50 µM (inactive).
Molecule O=C(OCc1cccc(Cl)c1)c1ccc2ccccc2n1 has an IC50 of 0.36 µM.
For Cc1ccc(-c2nc(-c3cccs3)cc(C(F)(F)F)c2C#N)cc1, the IC50 was > 50 µM (inactive).
Work on COc1ccc(-c2cc(-c3nnc4n3CCCCC4)n(-c3ccccc3)n2)cc1 yielded an IC50 of 20.1 µM.
With CCn1cc(NC(=O)CN2CCC3(CC=CCOC3)CC2)c(C)n1 the IC50 was > 50 µM (inactive).
In the case of O=c1c(Nc2cccc(F)c2)nc2ccncc2n1Cc1ccccc1, the IC50 is reported as 26 µM.
COc1cnc(-c2ccccn2)nc1Sc1ccccc1Cl was tested, and the IC50 was 10.9 µM.
O=C(Nc1cc(Cl)cc(Cl)c1)c1csnn1 showed an IC50 of 15.9 µM.
O=C(/C=C/c1ccc(F)cc1)N1CCc2ccccc2C1 was tested, and the IC50 was 35.1 µM.
COc1cccc(/C=C/C(=O)Nc2ccc(C)c(Cl)c2)c1 showed an IC50 of 5.79 µM.
COc1ccc(-c2cc3nc(C)cc(Nc4ccc(F)cc4)n3n2)cc1OC was tested, and the IC50 was > 50 µM (inactive).
Work on CC(=O)Nc1ccc(NC(=O)c2cc(-c3cc(C)cc(C)c3O)n[nH]2)cc1 yielded an IC50 of 10.8 µM.
For O=C(NCc1ccc(-c2nc3cnccc3o2)cc1)c1ccccc1F, the IC50 was 15.3 µM.
With CCCn1c(=O)n(CC(=O)c2ccccc2F)c2c(C(N)=O)nc(-c3ccco3)nc21 the IC50 was > 50 µM (inactive).
For COc1ccc(CCn2cnc3c4ccccc4n(C)c3c2=O)cc1OC, the IC50 was 8.44 µM.
For CN(CCc1ccccc1)c1nccc(N2CCN(C(=O)c3csc(-c4cccnc4)n3)CC2)n1, the IC50 was > 50 µM (inactive).
Cc1cc(Cl)ccc1NC(=O)c1cc(-c2cccnc2)n[nH]1 was tested, and the IC50 was > 50 µM (inactive).
Cc1cc(=O)n(CC(=O)NCc2ccccc2F)c2c1c(C)nn2-c1ccccc1 showed an IC50 of 18.5 µM.
With COc1ccc(-c2cc(C(=O)N3CCN(c4ccc([N+](=O)[O-])cc4)CC3)[nH]n2)cc1 the IC50 was > 50 µM (inactive).
For Cc1cc(C)cc(-n2cnc3cc(C(=O)NCCC4=CCCCC4)ccc32)c1, the IC50 was 2.01 µM.
For Cc1ccn(-c2ccc(NC(=O)c3ccccc3Sc3ccccc3C#N)cc2)n1, the IC50 was 36.1 µM.
Cc1ccc(NC(=O)c2sc3ncn(CC(=O)N4CCN(c5ccccn5)CC4)c(=O)c3c2C)c(Br)c1 was tested, and the IC50 was 16.1 µM.
In the case of CCN1C[C@@H]2C[C@]2(c2ccccc2OC)C(=O)c2ncccc21, the IC50 is reported as > 50 µM (inactive).
In the case of COc1ccccc1C(=O)N1CCc2[nH]c3ccc(F)cc3c2C1, the IC50 is reported as > 50 µM (inactive).
O=c1c(NCCCN2CCCC2)nc2ccncc2n1Cc1ccccc1 was tested, and the IC50 was > 50 µM (inactive).
Cc1cccc(-n2ccnc(SCC(=O)Nc3ccc(Cl)cc3F)c2=O)c1 showed an IC50 of 3.91 µM.
In the case of O=C1Nc2c(Cl)cc(Cl)cc2C1(O)c1sc(NC2CCCCC2)nc1-c1ccccc1 (configuration not stated), the IC50 is reported as 24.6 µM.
For Cc1nc(N2CCCC2)ncc1C(=O)Nc1ccc(F)c(F)c1, the IC50 was 32.9 µM.
For Cc1cccc(NC(=O)c2ccn(COc3ccc(F)cc3F)n2)c1C, the IC50 was > 50 µM (inactive).
For Cn1nccc1C(=O)N1CCCCC1c1ncc(Cc2ccc(Cl)cc2)o1 (configuration not stated), the IC50 was > 50 µM (inactive).
Molecule Cc1cc2nc(-c3ccc(SCc4ccccn4)nc3)[nH]c2cc1C has an IC50 of 12.5 µM.
Work on CCc1ccc(NC(=O)COc2cccc(-n3cnnn3)c2)cc1 yielded an IC50 of 25 µM.
For CC(C)(C)C(=O)NC(c1ccccc1)c1nnc(N2CCOCC2)o1 (configuration not stated), the IC50 was > 50 µM (inactive).
Cc1ccc(NC(=O)c2cnc(N3CCOCC3)nc2)cc1F gave an IC50 of 33.3 µM.
For O=c1sc2ccccc2c(=O)n1Cc1cccc(C(F)(F)F)c1, the IC50 was 1.09 µM.
With Cc1c(C)n(-c2ccccc2)c2ncn(CC(=O)NCCCc3ccccc3)c(=O)c12 the IC50 was 23.1 µM.
For O=C(COc1nc2ccccc2nc1N1CCOCC1)NC(c1ccccc1)c1ccccc1, the IC50 was > 50 µM (inactive).
With COc1ccc2c(c1)c(N1CCCC1=O)c(C(=O)NCc1cccc(OC)c1OC)n2C the IC50 was > 50 µM (inactive).
With CC1CCCCN1CCCNC(=O)c1ccc(N2CCc3ccccc32)s1 (configuration not stated) the IC50 was 10.6 µM.
CNC(=O)c1cc2nc(N(C)C)n(-c3ccccc3)c2s1 was tested, and the IC50 was 27.1 µM.
COc1cc2c(c(OCC(=O)Nc3ccc4c(c3)OCCO4)c1)C(=O)O[C@@H](C)CCCC(=O)CCCCC2 was tested, and the IC50 was 20.7 µM.
In the case of Nc1nonc1C(=O)NCCNCc1cccc(OCc2ccc(Cl)cc2)c1, the IC50 is reported as 32.6 µM.
Molecule COc1ccc(-c2cc3c(=O)n(CC(=O)Nc4ccccc4F)ccn3n2)cc1OC has an IC50 of 33 µM.
Cc1noc(-c2cccn(Cc3cccc(C(F)(F)F)c3)c2=O)n1 was tested, and the IC50 was 8.11 µM.
Cc1cccc(O)c1-c1nc2c(-c3nc4c(C(=O)O)cccc4o3)cccc2o1 was tested, and the IC50 was > 50 µM (inactive).
Nc1nc(OCc2ccccc2)c2[nH]c(/C=C/c3cccs3)nc2n1 showed an IC50 of 24.9 µM.
With CCOc1ccccc1C(=O)Nc1ccc2c(c1)Sc1ncccc1C(=O)N2C the IC50 was 41.6 µM.
For O=C(NCc1ccc2c(c1)OCO2)c1nc(-c2ccccc2)n(-c2ccccc2)n1, the IC50 was > 50 µM (inactive).
With COc1cc2c(cc1OC)C(COc1ccccc1OC)N(C(=O)c1ccc3ccccc3c1)CC2 (configuration not stated) the IC50 was > 50 µM (inactive).
In the case of COc1ccccc1NS(=O)(=O)c1cccc(NC(=O)CCc2nc3ccccc3s2)c1, the IC50 is reported as 13.3 µM.
For Cc1ccc(OCC(=O)Nc2cccc(-c3nc4ncccc4o3)c2)c(C)c1, the IC50 was 38.5 µM.
For N#Cc1ccccc1Cn1c(=O)n(Cc2ccco2)c(=O)c2ccccc21, the IC50 was 7.54 µM.
O=C1c2ccccc2NC2(C(=O)Nc3ccc(Br)cc32)N1c1ccccc1 (configuration not stated) gave an IC50 of 3.31 µM.
For CCOc1ccc2nc(NC(=O)C3CCN(S(=O)(=O)c4ccc5c(c4)CC(C)N5C(C)=O)CC3)sc2c1 (configuration not stated), the IC50 was > 50 µM (inactive).
Work on Cc1cccc(NC(=O)CN2C(=O)COc3cc(S(=O)(=O)N4CCCC4)ccc32)c1C yielded an IC50 of 21 µM.
For O=C(CN1CCCCC1)Nc1nnc(-c2ccc([N+](=O)[O-])cc2)s1, the IC50 was 14 µM.
COc1ccccc1-c1nc(-c2nnn(Cc3ccc(C)cc3)c2C)no1 gave an IC50 of 5.47 µM.
With COc1ccc(OC)c(-n2c(SCC(=O)N3CCc4ccccc43)nnc2-c2cccc(S(=O)(=O)N(C)C)c2)c1 the IC50 was 8.44 µM.
For COc1ccc(CC(NC(C)=O)C(=O)NC2CCN(c3c(Cc4ccccc4)c(C)nc4ncnn34)CC2)cc1OC (configuration not stated), the IC50 was > 50 µM (inactive).
FC(F)(F)c1cccc(Nc2nnc(-c3cccnc3)s2)c1 showed an IC50 of 12.1 µM.
Work on Cc1cc(C)c2cc(C(=O)NC3CCN(Cc4ccccc4)CC3)[nH]c2c1 yielded an IC50 of 13.8 µM.
Cc1ccccc1NC(=O)Nc1ccccc1OCc1cc(=O)n2cccc(C)c2n1 showed an IC50 of 1.04 µM.
In the case of CCC/C=C\C#CC/C=C\CCCCCCCC(=O)O, the IC50 is reported as 1.09 µM.
CN1CCN(C(=O)c2cc(-c3ccn(-c4ccccc4)n3)n3ccccc23)CC1 was tested, and the IC50 was > 50 µM (inactive).
For CCN1C(SCc2ccc(F)cc2)=NS(=O)(=O)c2ccccc21, the IC50 was 26.7 µM.
In the case of Cc1ccc(-c2ccc(N3CCOCC3)nn2)cc1S(=O)(=O)N1CCOCC1, the IC50 is reported as > 50 µM (inactive).
In the case of CCn1c(SCc2cccc(C)c2)nnc1-c1cnccn1, the IC50 is reported as 22 µM.
COc1ccc(-n2c(SCC(=O)c3ccc(F)cc3)nnc2-c2cccnc2)cc1 showed an IC50 of 18.6 µM.
COc1ccc(OC)c2c(C)cc(N3CCN(S(=O)(=O)c4ccc5c(c4)CCCN5S(C)(=O)=O)CC3)nc12 showed an IC50 of 17.9 µM.
COc1cccc(CNC(=O)c2ccc(CSc3nc4ccncc4n3Cc3ccccc3F)cc2)c1 was tested, and the IC50 was 27.4 µM.
Molecule COc1ccc(OC)c(-c2c(C#N)c(C)nc3c2N2CCC3CC2)c1 has an IC50 of 1.8 µM.
For O=C(Cn1ccc2ccc(N3CCOCC3)nc21)NCc1ccccc1F, the IC50 was > 50 µM (inactive).
In the case of CCN(CC(=O)Nc1cc(C)on1)c1cccc2ccccc12, the IC50 is reported as > 50 µM (inactive).
O=C(CNC(=O)OCc1ccccc1)Nc1ccc(Br)cc1C(=O)c1ccccc1Cl showed an IC50 of 11.3 µM.
With CN(C(=O)CSc1nnc(-c2cc3ccccc3n2C)o1)c1ccccc1 the IC50 was > 50 µM (inactive).
For CCn1cc2c(n1)c(=O)n(Cc1ccccc1)c(=O)n2CC(=O)Nc1ccc(OC)cc1, the IC50 was 10.5 µM.
Molecule COc1cccc(NC(=O)Nc2nccn(-c3ccc(F)cc3)c2=O)c1 has an IC50 of 18.3 µM.
Cc1ccc2nc(CCc3ccc(NS(=O)(=O)c4cccc(Cl)c4C)cc3)[nH]c2c1 gave an IC50 of 27.1 µM.
For CCn1c(=O)c2ccccc2n(Cc2nc(-c3ccccc3OC)no2)c1=O, the IC50 was > 50 µM (inactive).
Work on COc1ccc(Nc2nc(C(=O)NCc3ccc4c(c3)OCO4)cc3occc23)cc1 yielded an IC50 of 4.91 µM.
With O=C(COc1cccc(C(=O)NCc2ccccc2)c1)Nc1ccc(Oc2ccccc2)cc1 the IC50 was 27.9 µM.
In the case of COc1ccc(OC)c(-c2cn3ccn(-c4ccc5c(c4)CCC5)c(=O)c3n2)c1, the IC50 is reported as > 50 µM (inactive).
For COc1cc2cc3c(c(O)c2c(O)c1-c1c(OC)cc2cc4c(c(O)c2c1O)C(=O)OC1CC(C)OC41)C(=O)OC1CC(C)OC31 (configuration not stated), the IC50 was > 50 µM (inactive).
In the case of Cc1ccc(CSC2=NS(=O)(=O)c3ccccc3N2)cc1, the IC50 is reported as 16.2 µM.
O=C(Nc1nc2ccccc2s1)c1ccc2c(c1)C(=O)N(Cc1cccnc1)C2=O showed an IC50 of 1.93 µM.
Cc1ccc2[nH]c(=O)c(CN(Cc3cccnc3)C(=O)c3cccc(Cl)c3)cc2c1 was tested, and the IC50 was > 50 µM (inactive).
In the case of N#C/C(=C\c1ccc(-c2cc(Cl)ccc2Cl)o1)c1nnc2n1CCCCC2, the IC50 is reported as > 50 µM (inactive).
O=C(CCc1c[nH]c2ccccc12)Nc1ccc(N2CCOCC2)cc1 gave an IC50 of 24.9 µM.
Cc1c(C(=O)NCc2cccc(Br)c2)oc2c1-c1[nH]ncc1CC2 showed an IC50 of 29.5 µM.
O=C(O)Cc1ccc(Nc2nc3ccccc3n3nnnc23)cc1 was tested, and the IC50 was > 50 µM (inactive).
In the case of O=C(Nc1ccc2nccnc2c1)c1cccc(C(F)(F)F)c1, the IC50 is reported as 33.6 µM.
CS(=O)(=O)N1CCc2cc(C(=O)Nc3ccc(Cc4ccncc4)cc3)ccc21 was tested, and the IC50 was 8.75 µM.
With CCc1ccc(OCc2nnc(SCC(=O)Nc3ccccc3OC)n2Cc2ccccc2)cc1 the IC50 was > 50 µM (inactive).
